Experimental data taken from ChEMBL document CHEMBL1649504, “Activity of SQ641, a capuramycin analog, in a murine model of tuberculosis” (2009).
In brackets after ≈: the same amount, converted by molar mass.

Columns and labels:
Assay type in all cases: functional
Mycobacterium avium = assay: Antimycobacterial activity against Mycobacterium avium
[1] = system: Mycobacterium tuberculosis; assay: Antibacterial activity against Mycobacterium tuberculosis H37Rv infected in C57BL/6 mouse assessed as […] in lung at 50 mg/kg, ip administered 5 times per week measured post last dose; details: route intraperitoneal
[2] = system: Mycobacterium tuberculosis; assay: Antibacterial activity against Mycobacterium tuberculosis H37Rv infected in C57BL/6 mouse assessed as […] in lung at 50 mg/kg, iv administered 2 times per week measured post last dose
[3] = system: Mycobacterium tuberculosis; assay: Antibacterial activity against Mycobacterium tuberculosis H37Rv infected in C57BL/6 mouse assessed as […] in lung at 25 mg/kg, iv administered 2 times per week measured post last dose
[4] = system: Mycobacterium tuberculosis; assay: Antimycobacterial activity against Mycobacterium tuberculosis
[5] = system: Mycobacterium tuberculosis; assay: Antibacterial activity against Mycobacterium tuberculosis H37Rv infected in C57BL/6 mouse assessed as […] in lung at 100 mg/kg, ip administered 5 times per week measured post last dose; details: route intraperitoneal
[6] = system: Mycobacterium tuberculosis; assay: Antibacterial activity against Mycobacterium tuberculosis H37Rv infected in C57BL/6 mouse assessed as […] in lung at 5 mg/kg administered for 1 week via oral gavage measured post last dose

CCCCCCCCCC(=O)O[C@@H]1[C@H](OC)[C@@H]([C@@H](CC(N)=O)O[C@H]2OC(C(=O)N[C@H]3CCC[C@@H](C)NC3=O)=C[C@@H](O)[C@H]2O)O[C@H]1n1ccc(=O)[nH]c1=O was tested, and the MIC (Mycobacterium avium) was 0.016 µg/mL (≈ 0.0213 µM), the log10cfu [1] was 6.7 and the log10cfu [2] was 6.01. It also gave a log10cfu [3] of 6.1, an MIC [4] of 1 µg/mL (≈ 1.33 µM) and a log10cfu [5] of 6.15. The log10cfu [6] was 5.1.
